Laboratory results reported in US11312712B2, “Azabenzimidazoles and their use as AMPA receptor modulators” (Janssen Pharmaceutica NV, priority 2015, dated 2022).

Each molecule was assayed against GluA1o-γ8 (GRIA1o-CACNG8 fusion construct) (Homo sapiens (Human), UniProt P42261+Q8WXS5) (assay: Calcium flux assay (FLIPR), inhibition of TARP γ8 dependent AMPA receptor activity). Conditions: GluA1o-γ8 (GRIA1o-CACNG8 fusion) in HEK293 cells, calcium flux after 15 μM glutamate.
Type: cell-based
Text: This assay was used to test compounds for their ability to inhibit TARP γ8 dependent AMPA receptor activity. The AMPA receptor is a non-selective cation channel activated by glutamate. Ionotropic glutamate receptors normally desensitize too rapidly to allow detectable calcium influx in a FLIPR assay (Strange et al. (2006). “Functional characterisation of homomeric ionotropic glutamate receptors GluR1-GluR6 in a fluorescence-based high throughput screening assay.” Comb Chem High Throughput Screen 9(2): 147-158). But, this desensitization is incomplete, and a substantial steady-state current remains in the sustained presence of glutamate (Cho et al. (2007). “Two families of TARP isoforms that have distinct effects on the kinetic properties of AMPA receptors and synaptic currents.” Neuron 55(6): 890-904).
An in vitro assay was used to determine the potency of test compounds as inhibitors of the glutamate response of the channel formed by GluA1o-γ8. To ensure a 1:1 stoichiometry of GluA1o and γ8 subunits in the expressed channel, a fusion of the cDNAs for GRIA1o and CACNG8 was used. Following Shi et al (2009) “The stoichiometry of AMPA receptors and TARPs varies by neuronal cell type.” Neuron 62(5): 633-640), the C-terminus of the cDNA for GRIA1o was fused to the N-terminus of the cDNA for γ8. The linker sequence was QQQQQQQQQQEFAT. Channels expressed with this construct appear to have similar properties to channels formed by co-expression of GRIA1o with an excess of CACNG8 (Shi et al. 2009). A clonal cell line in HEK293 cells stably expressing this construct, with a geneticin selection marker, was generated for use in this assay.
Cell expressing the GRIA1o-CACNG8 fusion construct were grown in a monolayer in 96- or 384-well microtiter plates. They were washed with assay buffer (135 mM NaCl, 4 mM KCl, 3 mM CaCl2, 1 mM MgCl2, 5 mM glucose, 10 mM HEPES, pH 7.4, 300 mOs) using a Biotek EL405 plate washer. The cells were then loaded with a calcium-sensitive dye (Calcium-5 or Calcium-6, Molecular Devices) and the test compounds at a range of concentrations. Calcium flux following the addition of 15 μM glutamate was monitored using a Molecular Devices FLIPR Tetra. The fluorescence in each well was normalized to the fluorescence of negative and positive control wells. The negative control wells had no added compounds, and the positive control wells had been incubated with 10 μM CP465022 (a non-subtype-selective AMPA receptor antagonist) (Lazzaro et al. (2002). “Functional characterization of CP-465,022, a selective, noncompetitive AMPA receptor antagonist.” Neuropharmacology 42(2): 143-153). The responses to glutamate as functions of the test compound concentrations were fitted to a four-parameter logistic function. The fitted parameter corresponding to the midpoint was taken to be the potency of inhibition of the compound. The data in Table 4 below illustrates the observed potentcy for the compounds described herein. pIC50 refers to the negative log of the IC50 in molar.

Sequence of GluA1o-γ8 (GRIA1o-CACNG8 fusion construct) (P42261 other isoform, or with tags, fused parts or gaps): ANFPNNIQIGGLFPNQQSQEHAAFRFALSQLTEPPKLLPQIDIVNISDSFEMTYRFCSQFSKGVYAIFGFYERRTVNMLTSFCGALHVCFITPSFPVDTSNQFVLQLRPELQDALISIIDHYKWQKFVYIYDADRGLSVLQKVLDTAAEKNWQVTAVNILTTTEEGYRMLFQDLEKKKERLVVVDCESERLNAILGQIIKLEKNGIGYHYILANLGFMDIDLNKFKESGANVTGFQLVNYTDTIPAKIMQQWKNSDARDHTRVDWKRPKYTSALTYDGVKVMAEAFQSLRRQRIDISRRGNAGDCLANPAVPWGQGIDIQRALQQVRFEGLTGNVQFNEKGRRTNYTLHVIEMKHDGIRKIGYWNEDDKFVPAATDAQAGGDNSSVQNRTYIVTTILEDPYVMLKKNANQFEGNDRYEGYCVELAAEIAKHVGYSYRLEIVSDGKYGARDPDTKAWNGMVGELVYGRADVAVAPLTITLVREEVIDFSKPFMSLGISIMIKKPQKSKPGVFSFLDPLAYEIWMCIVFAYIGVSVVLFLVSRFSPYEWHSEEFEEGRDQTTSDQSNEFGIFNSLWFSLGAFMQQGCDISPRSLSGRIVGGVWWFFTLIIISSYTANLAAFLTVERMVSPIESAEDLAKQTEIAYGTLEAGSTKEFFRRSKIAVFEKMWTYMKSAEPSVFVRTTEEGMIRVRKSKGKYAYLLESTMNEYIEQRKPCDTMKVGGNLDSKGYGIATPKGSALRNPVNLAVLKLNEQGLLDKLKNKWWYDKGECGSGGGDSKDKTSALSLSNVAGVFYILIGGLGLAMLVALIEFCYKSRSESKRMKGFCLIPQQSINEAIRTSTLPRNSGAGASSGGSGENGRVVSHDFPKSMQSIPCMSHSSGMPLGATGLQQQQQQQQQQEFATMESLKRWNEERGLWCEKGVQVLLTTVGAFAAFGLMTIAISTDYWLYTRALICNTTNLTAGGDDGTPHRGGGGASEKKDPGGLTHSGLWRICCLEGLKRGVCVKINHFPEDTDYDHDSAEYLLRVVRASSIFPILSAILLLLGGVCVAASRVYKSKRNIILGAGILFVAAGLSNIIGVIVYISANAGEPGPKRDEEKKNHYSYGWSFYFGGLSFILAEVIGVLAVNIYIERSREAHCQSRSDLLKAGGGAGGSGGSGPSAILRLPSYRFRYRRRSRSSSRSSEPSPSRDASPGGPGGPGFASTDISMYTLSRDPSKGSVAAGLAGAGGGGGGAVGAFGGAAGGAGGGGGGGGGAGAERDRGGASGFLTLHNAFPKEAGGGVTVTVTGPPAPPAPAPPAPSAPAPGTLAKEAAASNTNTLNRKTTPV

Row | IC50 | SMILES
1 | 63.1 nM | O=c1[nH]c2ccc(-n3c(C(F)F)nc4ccc(C(F)(F)F)nc43)cc2o1 [Example 235, 6-[2-(Difluoromethyl)-5-(trifluoromethyl)imidazo[4,5-b]pyridin-3-yl]-3H-1,3-benzoxazol-2-one]
2 | 0.794 nM | Cc1ccc2nc(-c3ccccc3)n(-c3ccc4[nH]ncc4c3)c2n1 [Example 3, 3-(1H-Indazol-5-yl)-5-methyl-2-phenyl-imidazo[4,5-b]pyridine]
3 | 2.51 nM | O=c1[nH]c2ccc(-n3c(C4CC4)nc4ccc(C(F)(F)F)nc43)cc2[nH]1 [Example 106, 5-[2-Cyclopropyl-5-(trifluoromethyl)imidazo[4,5-b]pyridin-3-yl]-1,3-dihydrobenzimidazol-2-one]
4 | 0.631 nM | CC(C)c1nc2ccc(C(F)F)nc2n1-c1ccc2[nH]ncc2c1 [Example 210, 5-(Difluoromethyl)-3-(1H-indazol-5-yl)-2-isopropyl-imidazo[4,5-b]pyridine]
5 | 0.158 nM | FC(F)(F)c1ccc2nc([C@H]3C[C@@H](F)C3)n(-c3cc(Cl)c4[nH]ncc4c3)c2n1 [Example 248, 3-(7-Chloro-1H-indazol-5-yl)-2-(3-fluorocyclobutyl)-5-(trifluoromethyl)imidazo[4,5-b]pyridine]
6 | 0.1 nM | CC(F)(F)c1nc2ccc(C(F)(F)F)nc2n1-c1ccc2[nH]c(=O)sc2c1 [Example 266, 6-[2-(1,1-Difluoroethyl)-5-(trifluoromethyl)imidazo[4,5-b]pyridin-3-yl]-3H-1,3-benzothiazol-2-one]
7 | 2 nM | CC[C@@H](C)c1nc2ccc(C(F)(F)F)nc2n1-c1ccc2[nH]ncc2c1 [Example 167, (R)-3-(1H-Indazol-5-yl)-2-sec-butyl-5-(trifluoromethyl)imidazo[4,5-b]pyridine]
8 | 12.6 nM | FC(F)(F)c1ccc2nc(C(F)(F)F)n(-c3cnc4[nH]ncc4c3)c2n1 [Example 204, 3-(1H-pyrazolo[3,4-b]pyridin-5-yl)-2,5-bis(trifluoromethyl)imidazo[4,5-b]pyridine]
9 | 5.01 nM | COc1ccc2cc(-c3ccc(F)cc3)n(-c3ccc4c(c3)CC(=O)N4)c2n1 [Example 384, 5-[2-(4-Fluorophenyl)-6-methoxy-pyrrolo[2,3-b]pyridin-1-yl]indolin-2-one]
10 | 0.0631 nM | CC(C)(F)c1nc2ccc(C(F)(F)F)nc2n1-c1cc(Cl)c2[nH]ncc2c1 [Example 254, 3-(7-Chloro-1H-indazol-5-yl)-2-(1-fluoro-1-methyl-ethyl)-5-(trifluoromethyl)imidazo[4,5-b]pyridine]
11 | 50.1 nM | O=C1Cc2cc(-n3c(C(F)F)nc4ccc(C(F)(F)F)nc43)ccc2N1 [Example 94, 5-[2-(Difluoromethyl)-5-(trifluoromethyl)imidazo[4,5-b]pyridin-3-yl]indolin-2-one]
12 | 0.631 nM | O=c1[nH]c2ccc(-n3c(-c4ccc(F)cc4)nc4ccc(C(F)(F)F)nc43)cc2s1 [Example 16, 6-[2-(4-Fluorophenyl)-5-(trifluoromethyl)imidazo[4,5-b]pyridin-3-yl]-3H-1,3-benzothiazol-2-one]
13 | 0.398 nM | FC(F)c1ccc2nc(C(F)(F)F)n(-c3ccc4[nH]ncc4c3)c2n1 [Example 238, 5-(Difluoromethyl)-3-(1H-indazol-5-yl)-2-(trifluoromethyl)imidazo[4,5-b]pyridine]
14 | 1.58 nM | Cc1ccc2nc(C(C)C)n(-c3ccc4[nH]c(=O)sc4c3)c2n1 [Example 144, 6-(2-Isopropyl-5-methyl-imidazo[4,5-b]pyridin-3-yl)-3H-1,3-benzothiazol-2-one]
15 | 0.02 nM | FC(F)(F)c1ccc2nc(C(F)(F)F)n(-c3cc(Cl)c4[nH]ncc4c3)c2n1 [Example 270, 3-(7-Chloro-1H-indazol-5-yl)-2,5-bis(trifluoromethyl)imidazo[4,5-b]pyridine]
16 | 0.0398 nM | Cc1cc(-n2c(C(C)C)cc3cccnc32)cc2cn[nH]c12 [Example 332, 5-(2-Isopropyl-1H-pyrrolo[2,3-b]pyridin-1-yl)-7-methyl-1H-indazole]
17 | 5.01 nM | FC(F)(F)c1ccc2nc(-c3ccco3)n(-c3ccc4[nH]ncc4c3)c2n1 [Example 92, 2-(2-Furyl)-3-(1H-indazol-5-yl)-5-(trifluoromethyl)imidazo[4,5-b]pyridine]
18 | 0.0501 nM | COc1ccc2nc(C(F)(F)F)n(-c3cc(Cl)c4[nH]ncc4c3)c2n1 [Example 415, 3-(7-Chloro-1H-indazol-5-yl)-5-methoxy-2-(trifluoromethyl)-3H-imidazo[4,5-b]pyridine]
19 | 0.0398 nM | Cc1cc(-n2c(CCCF)cc3ccc(C(F)(F)F)nc32)cc2cn[nH]c12 [Example 371, 2-(3-Fluoropropyl)-1-(7-methyl-1H-indazol-5-yl)-6-(trifluoromethyl)pyrrolo[2,3-b]pyridine]
20 | 15.8 nM | CC(C)c1nc2ccc(C(F)(F)F)nc2n1-c1ccc2[nH]c(=O)oc2c1 [Example 159, 6-[2-Isopropyl-5-(trifluoromethyl)imidazo[4,5-b]pyridin-3-yl]-3H-1,3-benzoxazol-2-one]
21 | 1.58 nM | Cc1ccc2nc(C(F)(F)F)n(-c3ccc4[nH]c(=O)sc4c3)c2n1 [Example 142, 6-[5-Methyl-2-(trifluoromethyl)imidazo[4,5-b]pyridin-3-yl]-3H-1,3-benzothiazol-2-one]
22 | 0.0251 nM | O=C1Cc2cc(-n3c(C4CC4)cc4ccc(C(F)(F)F)nc43)ccc2N1 [Example 399, 5-[2-Cyclopropyl-6-(trifluoromethyl)pyrrolo[2,3-b]pyridin-1-yl]indolin-2-one]
23 | 39.8 nM | O=c1[nH]c2ccc(-n3c(C4CCOCC4)nc4ccc(C(F)(F)F)nc43)cc2s1 [Example 42, 6-[2-Tetrahydropyran-4-yl-5-(trifluoromethyl)imidazo[4,5-b]pyridin-3-yl]-3H-1,3-benzothiazol-2-one]
24 | 0.158 nM | Cc1cc(-n2c(C(C)(F)F)nc3ccc(C(F)(F)F)nc32)cc2cn[nH]c12 [Example 252, 2-(1,1-Difluoroethyl)-3-(7-methyl-1H-indazol-5-yl)-5-(trifluoromethyl)imidazo[4,5-b]pyridine]
25 | 6.31 nM | CC(C)c1nc2cccnc2n1-c1cc(Cl)c2[nH]ncc2c1 [Example 200, 3-(7-Chloro-1H-indazol-5-yl)-2-isopropyl-imidazo[4,5-b]pyridine]
26 | 0.0398 nM | O=C1Cc2cc(-n3c(-c4ccccc4)cc4ccc(C(F)(F)F)nc43)ccc2N1 [Example 397, 5-[2-Phenyl-6-(trifluoromethyl)pyrrolo[2,3-b]pyridin-1-yl]indolin-2-one]
27 | 631 nM | COc1ccc2cc(-c3ccc(F)cc3)n(-c3ccc4[nH]ccc4c3)c2n1 [Example 343, 2-(4-Fluorophenyl)-1-(1H-indol-5-yl)-6-methoxy-pyrrolo[2,3-b]pyridine]
28 | 0.0316 nM | FCCCc1cc2ccc(C(F)(F)F)nc2n1-c1cc(Cl)c2[nH]ncc2c1 [Example 372, 1-(7-Chloro-1H-indazol-5-yl)-2-(3-fluoropropyl)-6-(trifluoromethyl)pyrrolo[2,3-b]pyridine]
29 | 100 nM | Cc1ccnc2c1nc(C(F)(F)F)n2-c1ccc2[nH]ncc2c1 [Example 201, 3-(1H-indazol-5-yl)-7-methyl-2-(trifluoromethyl)imidazo[4,5-b]pyridine]
30 | 0.1 nM | Fc1cc(-c2nc3ccc(C(F)F)nc3n2-c2cc(Cl)c3[nH]ncc3c2)ccn1 [Example 264, 3-(7-Chloro-1H-indazol-5-yl)-5-(difluoromethyl)-2-(2-fluoro-4-pyridyl)imidazo[4,5-b]pyridine]
